Laboratory results as given in ChEMBL document CHEMBL4130390, “Crystal structure of Porphyromonas gingivalis dipeptidyl peptidase 4 and structure-activity relationships based on inhibitor profiling” (Eur J Med Chem, 2017).

Columns and labels:
[1] = target: Dipeptidyl peptidase IV (Porphyromonas gingivalis) (UniProt O31048); assay: Inhibition of Porphyromonas gingivalis N-terminal His-tagged DPP4 expressed in Escherichia coli at 100 uM using Gly-Pro-p-nitroanilide as substrate relative to control
Dipeptidyl peptidase IV = Dipeptidyl peptidase IV (Porphyromonas gingivalis, UniProt O31048); assay: Inhibition of Porphyromonas gingivalis N-terminal His-tagged DPP4 expressed in Escherichia coli using Gly-Pro-p-nitroanilide as substrate
[2] = target: Dipeptidyl peptidase IV (Porphyromonas gingivalis) (UniProt O31048); assay: Inhibition of Porphyromonas gingivalis N-terminal His-tagged DPP4 expressed in Escherichia coli at 10 uM using Gly-Pro-p-nitroanilide as substrate relative to control
[3] = Selectivity index, ratio of IC50 for human DPP4 to IC50 for Porphyromonas gingivalis N-terminal His-tagged DPP4 expressed in Escherichia coli

Chain of Dipeptidyl peptidase IV (O31048 20-723 limits assumed): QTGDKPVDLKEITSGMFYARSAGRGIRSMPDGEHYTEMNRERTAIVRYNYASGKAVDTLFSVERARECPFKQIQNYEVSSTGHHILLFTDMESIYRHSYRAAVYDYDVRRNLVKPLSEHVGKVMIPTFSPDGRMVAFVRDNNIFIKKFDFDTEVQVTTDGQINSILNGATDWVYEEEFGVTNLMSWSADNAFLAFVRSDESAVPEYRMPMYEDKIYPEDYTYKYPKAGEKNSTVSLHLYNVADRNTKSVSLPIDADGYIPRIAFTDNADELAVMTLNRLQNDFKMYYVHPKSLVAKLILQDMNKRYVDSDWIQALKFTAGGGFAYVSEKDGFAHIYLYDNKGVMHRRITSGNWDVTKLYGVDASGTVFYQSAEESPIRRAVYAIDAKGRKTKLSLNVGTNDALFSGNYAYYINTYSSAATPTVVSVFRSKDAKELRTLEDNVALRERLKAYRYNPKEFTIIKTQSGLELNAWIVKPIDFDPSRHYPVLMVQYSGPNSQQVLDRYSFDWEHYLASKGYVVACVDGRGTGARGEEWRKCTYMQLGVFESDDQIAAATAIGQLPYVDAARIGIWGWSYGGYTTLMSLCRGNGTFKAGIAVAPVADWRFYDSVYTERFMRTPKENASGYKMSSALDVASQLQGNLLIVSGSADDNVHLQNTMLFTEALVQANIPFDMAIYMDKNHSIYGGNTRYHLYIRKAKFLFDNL
Chain of Dipeptidyl peptidase IV (Porphyromonas gingivalis) (O31048 20-723 limits assumed): as above

Compound | inhibition [1] | IC50 (Dipeptidyl peptidase IV; read-out: IC50) | inhibition [2] | IC50 (Dipeptidyl peptidase IV) | Ratio IC50 [3]
NC(CC(=O)N1CCN(C(c2ccc(F)cc2)c2ccc(F)cc2)CC1)C(=O)N1CCC(C(F)(F)F)C1 (stereo not drawn) | < 50% |  | > 50% | IC50 10-100 uM | 
N#C[C@@H]1C[C@H](N=[N+]=[N-])CN1C(=O)[C@@H](N)CCCCN | < 50% | 0.33 µM | > 50% |  | 6.58 to 6.7
NC(C(=O)N1Cc2ccccc2C1)C1CCCCC1 (stereo not drawn) | < 50% |  | > 50% | IC50 10-100 uM | 
NC(CCCCNC(=O)c1ccccc1)C(=O)N1CCCC1 (stereo not drawn) | < 50% |  | > 50% | IC50 10-100 uM | 
CCC(C)C(N)C(=O)N1CC=CC1 (stereo not drawn) | < 50% |  | > 50% | IC50 10-100 uM | 
NCCCCC(N)C(=O)N1CCSC1 (stereo not drawn) | < 50% | 19 µM | > 50% |  | 0.09
N#C[C@@H]1CCCN1C(=O)[C@@H](N)CCCCN | < 50% | 1.6 µM | > 50% |  | 0.16 to 0.2
CS(=O)(=O)NCCCCC(N)C(=O)N1CCCC1 (stereo not drawn) | < 50% |  | > 50% | IC50 10-100 uM | 
CC[C@@H](C)[C@@H](N)C(=O)N1CCC(C#N)C1 (stereo partly drawn) | < 50% |  | > 50% | IC50 10-100 uM | 
NC(CC(=O)N1CCN(C(c2ccc(F)cc2)c2ccc(F)cc2)CC1)C(=O)N1Cc2ccccc2C1 (stereo not drawn) | < 50% |  | > 50% | IC50 10-100 uM | 
CC1C[C@@H](C#N)N(C(=O)[C@@H](N)CC(=O)N2CCN(C(c3ccc(F)cc3)c3ccc(F)cc3)CC2)C1 (stereo partly drawn) | < 50% |  | > 50% | IC50 10-100 uM | 
NC(CC(=O)N1CCN(C(c2ccccc2)c2ccc(Cl)cc2)CC1)C(=O)N1Cc2ccccc2C1 (stereo not drawn) | < 50% |  | > 50% | IC50 10-100 uM | 
CCC(C)C(N)C(=O)N1Cc2ccc(F)cc2C1 (stereo not drawn) | < 50% |  | > 50% | IC50 10-100 uM | 
Cc1ccc(S(=O)(=O)NCCCCC(N)C(=O)N2CCCC2)cc1 (stereo not drawn) | < 50% |  | > 50% | IC50 10-100 uM | 
CCC(C)C(N)C(=O)N1CC=CCC1 (stereo not drawn) | < 50% |  | > 50% | IC50 10-100 uM | 
N=C(N)NCCCC(N)C(=O)N1CCCC1 (stereo not drawn) | < 50% |  | > 50% | IC50 10-100 uM | 
CC[C@H](C)[C@H](N)C(=O)N1CCC(F)C1 (stereo partly drawn) | < 50% |  | > 50% | IC50 10-100 uM | 
CC(C)[C@H](N)C(=O)N1CCCC1B(O)O (stereo partly drawn) | < 50% | 0.14 µM | > 50% |  | 
NC(CCCCNC(=O)Oc1ccccc1)C(=O)N1CCCC1 (stereo not drawn) | < 50% |  | > 50% | IC50 10-100 uM | 
N#CC1CC(N=[N+]=[N-])CN1C(=O)C(N)CCCCN(Cc1ccc2ccccc2c1)Cc1ccc2ccccc2c1 (stereo not drawn) | < 50% | 0.58 µM | > 50% |  | 
CCC(C)C(N)C(=O)N1CCSC1 (stereo not drawn) | < 50% |  | > 50% | IC50 10-100 uM | 
CC1CCN(C(=O)C(N)CC(=O)N2CCN(C(c3ccc(F)cc3)c3ccc(F)cc3)CC2)C1 (stereo not drawn) | < 50% |  | > 50% | IC50 10-100 uM | 
N[C@@H](CC(=O)N1CCN(C(c2ccc(F)cc2)c2ccc(F)cc2)CC1)C(=O)N1CCCCC1 | < 50% |  | > 50% | IC50 10-100 uM | 
C=C1CCN(C(=O)C(N)C(C)CC)C1 (stereo not drawn) | < 50% |  | > 50% | IC50 10-100 uM | 

Further lines, results first:

inhibition [1] | IC50 (Dipeptidyl peptidase IV; read-out: IC50) | inhibition [2] | IC50 (Dipeptidyl peptidase IV) | Ratio IC50 [3] | Compound
< 50% | 19 µM | > 50% |  |  | CC(C)C(N)C(=O)N1CCCC1 (stereo not drawn)
< 50% |  | > 50% | IC50 10-100 uM |  | NCCNC(=O)CCC(N)Cc1ccccc1 (stereo not drawn)
< 50% |  | > 50% | IC50 10-100 uM |  | CC[C@H](C)[C@H](N)C(=O)N1CCCC1
< 50% |  | > 50% | IC50 10-100 uM |  | NC(CCCCN(Cc1ccccc1)Cc1ccccc1)C(=O)N1Cc2ccccc2C1 (stereo not drawn)
< 50% | 18 µM | > 50% |  |  | N[C@@H](CC(=O)N1CCn2c(nnc2C(F)(F)F)C1)Cc1cc(F)c(F)cc1F [SITAGLIPTIN]
< 50% |  | > 50% | IC50 10-100 uM |  | CC(=O)NCCCCC(N)C(=O)N1CCCC1 (stereo not drawn)
< 50% |  | > 50% | IC50 10-100 uM |  | CCCCC(N)C(=O)N1CCCC1 (stereo not drawn)
 | 19 µM | > 50% |  |  | CC[C@H](C)[C@H](N)C(=O)N1CCSC1
< 50% |  | > 50% | IC50 10-100 uM |  | CCC(C)C(N)C(=O)N1CCC(Cl)C1 (stereo not drawn)
< 50% |  | > 50% | IC50 10-100 uM |  | CN(CCCCC(N)C(=O)N1CCCC1)Cc1ccccc1 (stereo not drawn)
< 50% |  | > 50% | IC50 10-100 uM |  | CCC(C)C(N)C(=O)N1Cc2ccccc2C1 (stereo not drawn)
< 50% | 17 µM | > 50% |  | > 5.9 | NC(CC(=O)N1CCN(C(c2ccccc2)c2ccc(Cl)cc2)CC1)C(=O)N1Cc2ccc(F)cc2C1 (stereo not drawn)
< 50% | 22 µM | > 50% |  | 0.7 to 0.71 | N[C@@H](CCCCNC(=O)OCc1ccccc1)C(=O)N1CCCC1
< 50% |  | > 50% | IC50 10-100 uM |  | NC(CCCCNC(=O)Nc1ccccc1)C(=O)N1CCCC1 (stereo not drawn)
 |  | > 50% | IC50 10-100 uM |  | CC[C@@H](C)[C@H](N)C(=O)N1Cc2ccccc2C1
< 50% |  | > 50% | IC50 10-100 uM |  | NCCCCC(N)C(=O)N1Cc2ccccc2C1 (stereo not drawn)
 | 29 µM | > 50% |  |  | CC(C)[C@H](N)C(=O)N1CCCC1
< 50% |  | > 50% | IC50 10-100 uM |  | C=C1CCN(C(=O)C(N)CC(=O)N2CCN(C(c3ccc(F)cc3)c3ccc(F)cc3)CC2)C1 (stereo not drawn)
< 50% |  | > 50% | IC50 10-100 uM |  | CCC(C)C(N)C(=O)N1CCC(N=[N+]=[N-])C1 (stereo not drawn)
< 50% |  | > 50% | IC50 10-100 uM |  | CCC(C)C(N)C(=O)N1CCC(C)C1 (stereo not drawn)
< 50% |  | > 50% | IC50 10-100 uM |  | N#CC1CC(N=[N+]=[N-])CN1C(=O)C1CC(NCc2ccc3ccccc3c2)CN1 (stereo not drawn)
< 50% |  | > 50% | IC50 10-100 uM |  | NC(CCCNC(=NC(=O)OCc1ccccc1)NC(=O)OCc1ccccc1)C(=O)N1CCCC1 (stereo not drawn)
< 50% |  | > 50% | IC50 10-100 uM |  | O=C(C1CC(NCc2ccc3ccccc3c2)CN1)N1Cc2ccccc2C1 (stereo not drawn)
< 50% |  | > 50% | IC50 10-100 uM |  | C=C1CC(C)N(C(=O)C(N)CCC(=O)N2CCN(C(c3ccc(F)cc3)c3ccc(F)cc3)CC2)C1 (stereo not drawn)
< 50% |  | > 50% | IC50 10-100 uM |  | NC(CCCNC(=O)OCc1ccccc1)C(=O)N1CCCC1 (stereo not drawn)
< 50% |  | > 50% | IC50 10-100 uM |  | NC(CCCCNCc1ccc2ccccc2c1)C(=O)N1Cc2ccccc2C1 (stereo not drawn)
< 50% | 100 µM | > 50% |  |  | CC(O)C(N)C(=O)N1CCCC1 (stereo not drawn)
< 50% |  | > 50% | IC50 10-100 uM |  | CC[C@@H](C)[C@H](N)C(=O)N1C[C@H](N=[N+]=[N-])C[C@H]1C#N
